Measured values reported in patent publication US7256286B2, “Bryostatin analogues, synthetic methods and uses” (The Board of Trustees of the Leland Stanford Junior …, priority 1999, dated 2007).
Where two headings read alike, the source gives them in different places.

Columns and labels:
[1] = molecular target: PKC purified from rat brain (mixture of PKC isoenzymes); assay: Protein kinase C (isozyme mix) assay; assay type: binding; conditions: determined under identical conditions to the PKC isozyme mix assay; read-out: Kd of [H^3]-PDBu
Experimental: In one approach, anticancer activity of compounds of the invention can be assessed using the protein kinase C assay detailed in Example 5. In this assay, Ki values are determined for analogues based on competition with radiolabeled phorbol 12,13-dibutyrate for binding to a mixture of PKC isoenzymes. PKC enzymes are implicated in a variety of cellular responses which may be involved in the activity of the bryostatins.
The following procedure was used, based on a modification of a previous procedure described by Tanaka et al. (1986). Filters (Whatman GF-B, 21 mm diam.) are soaked for 1 h in a solution containing deionized water (97 mL), and 10% polyethyleneamine (3 mL). A filtering buffer solution containing TRIS (1M, pH 7.4, 10 mL) and water (490 mL) is prepared and cooled on ice. […] Non-specific binding is measured in 1–3 tubes by the substitution of phorbol myristate acetate (PMA) (1 mM, 5 μL) and EtOH (15 μL) for the analogue/EtOH combination. […] The filters are immediately counted in a scintillation counter (Beckman LS 6000SC). […] The data is then plotted using a least squares fit algorithm with the Macintosh version of Kaleidagraph© (Abelbeck Software) and an IC50 (defined as the concentration of analogue required to displace half of the specific PDBU binding to PKC) is calculated. […]

PKCδ-C1B = molecular target: T1, PKCδ-C1B (Mus musculus, UniProt P28867); assay: PKCδ-C1B assay; assay type: binding
T1 construct: made in house
T1 sequence (P28867 231-281 limits assumed): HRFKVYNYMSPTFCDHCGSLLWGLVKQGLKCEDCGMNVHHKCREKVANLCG
Experimental: Phosphatidyl serine vesicles are prepared by the addition of phosphatidyl serine (10 mg/mL in chloroform, 0.4 mL) to a glass test tube followed by removal of the chloroform under a stream of nitrogen (5 min). […] The resulting solution is stored over ice. […] Stock solutions of compounds are diluted with absolute ethanol in glass in serial fashion. […] The tubes are incubated at 37° C. for 90 min. and then put on ice for 5 min. Each tube is then filtered separately through a pre-soaked filter disc. […] The filter is subsequently rinsed with cold 20 mM TRIS buffer (5 mL) dropwise. […] The filters are immediately counted in a scintillation counter (Beckman LS 6000SC). Counts per minute are averaged among three trials at each concentration.

P388 cell line = assay: P388 murine lymphocytic leukemia cell assay; assay type: cell-based; conditions: Mus musculus, P388, 120 h; 5 days incubation, MTT; read-out: P388 Assay ED50
Experimental: Cells from a P388 cell line (CellGate, Inc., Sunnyvale, Calif.) are grown in RPMI 1640 cell medium containing fetal calf serum (10%), L-glutamine, penicillin, streptomycin and are split twice weekly. All compounds are first diluted with DMSO. Later serial dilutions are done with a phosphate buffer solution (HYQ DPBS modified phosphate buffered saline). All dilutions are done in glass vials and the final DMSO concentration is always below 0.5% by volume. Final two-fold dilutions are done in a 96 well plate using cell media so that each well contains 50 μL. All compounds are assayed in quadruplicate over 12 concentrations. Cell concentration is measured using a hemacytometer and the final cell concentration is adjusted to 1×10^4 cells/mL with cell medium. The resulting solution of cells (50 μL) is then added to each well and the plates are incubated for 5 days in a 37° C., 5% CO2, humidified incubator (Sanyo CO2 incubator). MTT solution (3-[4,5-dimethylthiazol-2-yl]-2,5-diphenyltetrazolium bromide, 10 μL) is then added to each well and the plates are re-incubated under identical conditions for 2 h. To each well is then added acidified isopropanol (150 μL of i-PrOH solution containing 0.05 N HCl) and mixed thoroughly. The plates are then scanned at 595 nm and the absorbances are read (Wallac Victor 1420 Multilabel Counter). The resulting data is then analyzed to determine an ED50 value using the Prism software package (GraphPad).

SMILES: CCCC(=O)O[C@@H]1[C@@H](C)[C@@]2(O)[C@@H](C=C(CO)C[C@]3(O)C(=O)C(C)=C[C@@H]23)[C@@H]2C(C)(C)[C@]12OC(=O)CCC [Phorbol dibutyrate, phorbol 12,13-dibutyrate, reference compound]
- Kd [1]: 1.55 nM
- Kd (PKCδ-C1B; Kd value printed in the Ki column): 1.7 nM

SMILES: COC(=O)/C=C1\C[C@H]2C[C@H]([C@@H](C)O)OC(=O)C[C@H](O)C[C@@H]3CCC[C@H](C[C@@H]4CCO[C@H](/C=C/C(C)(C)[C@](O)(O2)C1OC(C)=O)O4)O3 (stereo partly drawn) [Formula 702.2]
- Ki (PKCδ-C1B; competition with tritiated phorbol 12,13-dibutyrate, read-out: PKCδ-C1B Assay Ki): 232 ± 11 nM
- EC50 (P388 cell line): 181 nM

SMILES: CCCCCCCC(=O)O[C@H]1/C(=C/C(=O)OC)CC2C[C@H]([C@@H](C)O)OC(=O)C[C@H](O)C[C@@H]3CCC[C@H](C[C@@H]4CCO[C@H](/C=C/C(C)(C)[C@]1(O)O2)O4)O3 [Formula 1998a, reference compound]
- Ki (PKCδ-C1B): 5.1 nM
- EC50 (P388 cell line): 76 nM
